Reference: patent US11504394B2, “Targeted ionophore-based metal delivery” (The Regents of the University of California, priority 2018, dated 2022)

Key:
[1] = Stability in aqueous solutions at different pH (UV-vis); format: physicochemical; conditions: pH=3 to 8
Protocol: All spectroscopic measurements were performed in 20 mM PBS, pH 7.4 unless otherwise indicated. Absorption spectra were acquired on a Varian Cary 50 spectrophotometer.

labile Cu^+ pool = assay: In vivo bioluminescence imaging with CCL-1 / D-Luc, liver region; set-up: species or system FVB-luc^+ mice; conditions: 24 hours after ionophore, 0.75 mg Cu/kg i.p.
Protocol: A Xenogen IVIS Spectrum instrument (Caliper Life Sciences) was used for bioluminescence imaging in all animal experiments, and image analysis was performed using the Living Image software. The total photon flux for each animal was determined by drawing a region of interest around the liver and integrating photon flux over the total imaging period (area under the curve). We selected our liver region of interest based on comparing the bioluminescence data in vivo and ex vivo, as described in our previous studies with the CCL-1 probe.^27 The same region of interest around the liver was applied to analyzing both the CCL-1 and D-Luc data. The data plotted in FIG. 8A represents the ratio of CCL-1 integrated photon flux to basal D-luc integrated photon flux. Mice were anesthetized prior to injection and during imaging via inhalation of isoflurane. Isoflurane was purchased from Phoenix Pharmaceuticals, Inc. DMSO was purchased from Sigma-Aldrich, Dulbecco's phosphate buffered saline was purchased from Gibco, and medical-grade oxygen was purchased from Praxair.
FVB-luc+ mice were given intraperitoneal (i.p.) injections of vehicle (50 μL 1:1 DMSO:DPBS), 3.46 mg/kg Cu(gtsm), or 7.26 mg/kg Gal-Cu(gtsm) under anesthesia with isoflurane. The ionophore concentrations were chosen to give an equivalent copper dose of 0.75 mg Cu/kg mouse at 0.6 mg Cu/mL vehicle. […]

ATP7B = assay: Western blot of liver lysates, ATP7B; format: in vivo, mouse; conditions: 6 and 24 hours
Protocol: (§1) Frozen mouse livers were minced into 50 mg samples on dry ice and homogenized in ice-cold RIPA buffer (25 mM Tris.HCl pH 7.6, 150 mM NaCl, 1% NP-40, 1% sodium deoxycholate, 0.1% SDS) containing protease inhibitor cocktail with EDTA (Roche) at 100 mg/mL using a hand-held mechanical homogenizer. Homogenates were incubated on ice for 30 min and centrifuged at 12,000×g for 20 min at 4° C. The soluble protein lysates were collected from underneath the upper lipid layer with a pipette and transferred to new tubes. Protein concentration was determined using a detergent-compatible Bradford Assay (Pierce).
(§2) Protein lysates were denatured in NuPAGE lithium dodecyl sulfate sample buffer (Invitrogen) containing 10% v/v β-mercaptoethanol as a reducing agent. […] The membranes were washed 5 times for 5 minutes in TBST, then visualized using enhanced chemiluminescence (Western Lighting Plus for visualizing CCS and ATP7B, Perkin Elmer; Western Clarity Max for visualizing CTR1 and MT, Bio-Rad) recorded on a BioRad GelDoc imaging station. β-actin was probed to determine equal loading using anti-β-actin (sc-69879, Santa Cruz Biotechnology) and AlexaFluor 647-conjugated anti-mouse IgG (A31571, Molecular Probes) antibodies at 1:5000 and 1:2500 dilutions, respectively, with visualization using fluorescence recorded on a BioRad GelDoc imaging station.

CTR1 = assay: Western blot of liver lysates, CTR1; format: in vivo, mouse; conditions: 6 and 24 hour timepoints
Protocol: as §1, §2

MT-I/MT-II = assay: Western blot of liver lysates, MT-I/II; format: in vivo, mouse; conditions: 6 hours and 24 hours
Protocol: as §1, §2

[2] = tested on: mouse model for non-alcoholic fatty liver disease; assay: High fat diet mouse model for non-alcoholic fatty liver disease; format: in vivo, mice
Protocol: The potential of Gal-Cu(gtsm) in the treatment of non-alcoholic fatty liver disease (NFALD) was assessed in a mouse model. Mice were subjected to a high fat diet.

ATP7B Cu export protein = assay: Western blot ATP7B in high fat diet mice; format: in vivo
[3] = mouse, in vivo
Protocol: FVB-luc+ mice were heavily anesthetized and blood was collected via cardiac puncture. Mice were immediately euthanized by cervical dislocation. Tissues were harvested, rinsed twice with DPBS, snap-frozen under liquid nitrogen, and placed on dry ice in cryotubes and stored at −80° C. until analysis. Serum was isolated by allowing blood samples to coagulate for 1 hour at room temperature, centrifuging at 1,500 g for 15 minutes at 4° C., then collecting the serum supernatant. Samples were aliquoted, snap-frozen, and stored at −80° C. until analysis.
20-100 mg portions of the harvested tissues were digested in concentrated nitric acid (100 mg tissue/mL HNO3, BDH Aristar Ultra) at 95° C. for 2 h in 1.5 mL tubes (Sarstedt) with small holes poked in the caps with an 18G needle. After overnight incubation at room temperature, samples were diluted into freshly prepared 2% nitric acid and doped with a gallium internal standard (Inorganic Ventures, diluted from 1 ppm in 2% nitric acid to a 20 ppb final concentration). The copper content was determined by measuring ^63Cu using a Thermo Fisher iCAP-Qc ICP-MS in Kinetic Energy Discrimination (KED) mode. Measurements were normalized to a standard curve of known copper concentrations doped with 20 ppb Ga. The standard curve was diluted from CMS-5 (Inorganic Ventures).

For `CNC1=N[N+]2=CC=[N+]3N=C(NCCOCCOCCOC4OC(CO)C(O)C(O)C4NC(C)=O)[S][Cu-2]23[S]1` (stereo not drawn) [Gal-Cu(gtsm)], the “stability of complex in aqueous buffers” value [1] was “stable”, the “bioluminescent CCL-1/D-luc liver signal” value (labile Cu^+ pool) was “returns to basal levels” and the “ATP7B expression in liver” value (ATP7B) was “increased”. The “CTR1 expression (monomer and truncated forms) in liver” value (CTR1) was “Increased expression”, the “MT-I/MT-II expression in liver” value (MT-I/MT-II) was “increases dramatically” and the “tissue copper content (ICP-MS)” value [2] was “restores copper homeostasis”. For the same molecule, the glucose tolerance test ([2]; vs untreated HFD mice) was “improved metabolism”, the “liver steatosis and fattiness” value ([2]; vs untreated HFD mice) was “significantly reduced” and the “serum ALT assay” value ([2]; vs untreated HFD mice) was “rescued liver health”. For the same molecule, the ATP7B expression (ATP7B Cu export protein) was “reduced expression”, the “hepatic copper delivered relative to Cu(gtsm)” value [3] was “ca. 4 times” and the “time for hepatic copper stores to clear to basal levels” value ([3]; ip) was 72 h.
